Data published in PubChem BioAssay (NCI).
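Each compound was tested at five concentrations against cells in 96-well plates for 48 hours. Abbreviation: GI50, concentration required for 50% inhibition of growth. The concentration for full growth arrest is given as TGI.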

Experiments:
Test in all cases: growth of human tumour cells (NCI), 48 h
UO-31 renal = test system: UO-31 renal
SF-268 CNS = test system: SF-268 CNS
KM12 colon = test system: KM12 colon
SNB-19 CNS = test system: SNB-19 CNS
SNB-75 CNS = test system: SNB-75 CNS
SW-620 colon = test system: SW-620 colon
HOP-62 NSCLC = test system: HOP-62 NSCLC
HL-60(TB) leukemia = test system: HL-60(TB) leukemia
MDA-MB-435 = test system: MDA-MB-435
M14 melanoma = test system: M14 melanoma
MOLT-4 leukemia = test system: MOLT-4 leukemia
A498 renal = test system: A498 renal
UACC-62 melanoma = test system: UACC-62 melanoma
A549 NSCLC = test system: A549 NSCLC
BT-549 breast = test system: BT-549 breast
OVCAR-8 ovarian = test system: OVCAR-8 ovarian
HOP-92 NSCLC = test system: HOP-92 NSCLC
SF-295 CNS = test system: SF-295 CNS
SK-OV-3 ovarian = test system: SK-OV-3 ovarian
CAKI-1 renal = test system: CAKI-1 renal
DU-145 prostate = test system: DU-145 prostate
COLO 205 colon = test system: COLO 205 colon
HCT-116 colon = test system: HCT-116 colon
MDA-MB-231 breast = test system: MDA-MB-231 breast
SK-MEL-5 melanoma = test system: SK-MEL-5 melanoma
MALME-3M melanoma = test system: MALME-3M melanoma
OVCAR-3 ovarian = test system: OVCAR-3 ovarian
PC-3 prostate = test system: PC-3 prostate
TK-10 renal = test system: TK-10 renal
SR leukemia = test system: SR leukemia
ACHN renal = test system: ACHN renal
UACC-257 melanoma = test system: UACC-257 melanoma
HS 578T breast = test system: HS 578T breast
EKVX NSCLC = test system: EKVX NSCLC
IGROV1 ovarian = test system: IGROV1 ovarian
RPMI-8226 leukemia = test system: RPMI-8226 leukemia
NCI-H23 lung = test system: NCI-H23 lung
CCRF-CEM leukemia = test system: CCRF-CEM leukemia
OVCAR-4 ovarian = test system: OVCAR-4 ovarian
SK-MEL-2 melanoma = test system: SK-MEL-2 melanoma
NCI-H460 lung = test system: NCI-H460 lung
HCT-15 colon = test system: HCT-15 colon
NCI-H522 lung = test system: NCI-H522 lung
SK-MEL-28 melanoma = test system: SK-MEL-28 melanoma
HCC-2998 colon = test system: HCC-2998 colon
HT29 colon = test system: HT29 colon
MCF7 breast = test system: MCF7 breast
U251 CNS = test system: U251 CNS
T-47D breast = test system: T-47D breast
786-0 renal = test system: 786-0 renal
NCI-H226 lung = test system: NCI-H226 lung
SF-539 CNS = test system: SF-539 CNS
K-562 leukemia = test system: K-562 leukemia
SN12C renal = test system: SN12C renal
NCI/ADR-RES ovarian = test system: NCI/ADR-RES ovarian
LOX IMVI melanoma = test system: LOX IMVI melanoma
RXF 393 renal = test system: RXF 393 renal

c1cn2cc(-c3ccc4cn[nH]c4c3)nc(Nc3ccc(N4CCOCC4)cc3)c2n1
GI50 (UO-31 renal): 14.6 µM
TGI (UO-31 renal): 34.8 µM
GI50 (SF-268 CNS): 5.11 µM
TGI (SF-268 CNS): 27.4 µM
GI50 (KM12 colon): 0.479 µM
TGI (KM12 colon): 59 µM
GI50 (SNB-19 CNS): 11.2 µM
TGI (SNB-19 CNS): 30.8 µM
GI50 (SNB-75 CNS): 1.46 µM
TGI (SNB-75 CNS): 13.3 µM
GI50 (SW-620 colon): 26.7 µM
TGI (SW-620 colon): > 100 µM
GI50 (HOP-62 NSCLC): 3.81 µM
TGI (HOP-62 NSCLC): 16.1 µM
GI50 (HL-60(TB) leukemia): > 100 µM
TGI (HL-60(TB) leukemia): > 100 µM
GI50 (MDA-MB-435): 12.8 µM
TGI (MDA-MB-435): > 100 µM
GI50 (M14 melanoma): 15.1 µM
TGI (M14 melanoma): 62.3 µM
GI50 (MOLT-4 leukemia): 96.9 µM
TGI (MOLT-4 leukemia): > 100 µM
GI50 (A498 renal): 11.9 µM
TGI (A498 renal): 36.2 µM
GI50 (UACC-62 melanoma): 11.8 µM
TGI (UACC-62 melanoma): 37.8 µM
GI50 (A549 NSCLC): 10.4 µM
TGI (A549 NSCLC): 28.8 µM
GI50 (BT-549 breast): 14.5 µM
TGI (BT-549 breast): 48.1 µM
GI50 (OVCAR-8 ovarian): 4.87 µM
TGI (OVCAR-8 ovarian): 21.8 µM
GI50 (HOP-92 NSCLC): 15.6 µM
TGI (HOP-92 NSCLC): 33.8 µM
GI50 (SF-295 CNS): 10.6 µM
TGI (SF-295 CNS): 29.5 µM
GI50 (SK-OV-3 ovarian): 6.43 µM
TGI (SK-OV-3 ovarian): 19.6 µM
GI50 (CAKI-1 renal): 8.4 µM
TGI (CAKI-1 renal): 44.3 µM
GI50 (DU-145 prostate): 11.4 µM
TGI (DU-145 prostate): 23.5 µM
GI50 (COLO 205 colon): 41.3 µM
TGI (COLO 205 colon): > 100 µM
GI50 (HCT-116 colon): 10.1 µM
TGI (HCT-116 colon): 23.3 µM
GI50 (MDA-MB-231 breast): 12.6 µM
TGI (MDA-MB-231 breast): 26.7 µM
GI50 (SK-MEL-5 melanoma): 15.5 µM
TGI (SK-MEL-5 melanoma): 40.1 µM
GI50 (MALME-3M melanoma): 10.4 µM
TGI (MALME-3M melanoma): 27.3 µM
GI50 (OVCAR-3 ovarian): 18.4 µM
TGI (OVCAR-3 ovarian): 40.2 µM
GI50 (PC-3 prostate): 14.7 µM
TGI (PC-3 prostate): 35.4 µM
GI50 (TK-10 renal): 17.3 µM
TGI (TK-10 renal): 37.8 µM
GI50 (SR leukemia): 6.66 µM
TGI (SR leukemia): 27.5 µM
GI50 (ACHN renal): 11.1 µM
TGI (ACHN renal): 32.2 µM
GI50 (UACC-257 melanoma): 16.4 µM
TGI (UACC-257 melanoma): 44.8 µM
GI50 (HS 578T breast): 11.1 µM
TGI (HS 578T breast): 63.8 µM
GI50 (EKVX NSCLC): 14.8 µM
TGI (EKVX NSCLC): 41.8 µM
GI50 (IGROV1 ovarian): 16.5 µM
TGI (IGROV1 ovarian): 46 µM
GI50 (RPMI-8226 leukemia): 18.5 µM
TGI (RPMI-8226 leukemia): 86.6 µM
GI50 (NCI-H23 lung): 15.2 µM
TGI (NCI-H23 lung): 55 µM
GI50 (CCRF-CEM leukemia): > 100 µM
TGI (CCRF-CEM leukemia): > 100 µM
GI50 (OVCAR-4 ovarian): 7.78 µM
TGI (OVCAR-4 ovarian): 36.2 µM
GI50 (SK-MEL-2 melanoma): 36.1 µM
TGI (SK-MEL-2 melanoma): > 100 µM
GI50 (NCI-H460 lung): 7.59 µM
TGI (NCI-H460 lung): 25.4 µM
GI50 (HCT-15 colon): 11.7 µM
TGI (HCT-15 colon): 41.1 µM
GI50 (NCI-H522 lung): 12.3 µM
TGI (NCI-H522 lung): 39 µM
GI50 (SK-MEL-28 melanoma): 13 µM
TGI (SK-MEL-28 melanoma): 40.5 µM
GI50 (HCC-2998 colon): 61.6 µM
TGI (HCC-2998 colon): > 100 µM
GI50 (HT29 colon): 9.01 µM
TGI (HT29 colon): 37 µM
GI50 (MCF7 breast): 10.6 µM
TGI (MCF7 breast): 25.1 µM
GI50 (U251 CNS): 10 µM
TGI (U251 CNS): 21.6 µM
GI50 (T-47D breast): 12 µM
TGI (T-47D breast): 30.9 µM
GI50 (786-0 renal): 14.9 µM
TGI (786-0 renal): 32 µM
GI50 (NCI-H226 lung): 4.82 µM
TGI (NCI-H226 lung): 24.6 µM
GI50 (SF-539 CNS): 6.54 µM
TGI (SF-539 CNS): 23.1 µM
GI50 (K-562 leukemia): > 100 µM
TGI (K-562 leukemia): > 100 µM
GI50 (SN12C renal): 17 µM
TGI (SN12C renal): 41.2 µM
GI50 (NCI/ADR-RES ovarian): 11.1 µM
TGI (NCI/ADR-RES ovarian): 32.4 µM
GI50 (LOX IMVI melanoma): 17.8 µM
TGI (LOX IMVI melanoma): > 100 µM
GI50 (RXF 393 renal): 2.47 µM
TGI (RXF 393 renal): 18.3 µM
